Measurements: ChEMBL document CHEMBL1201862, “PubChem BioAssay data set” (2004)
Active and inactive are the calls of the source.

Experiments:
[1] = viability of uninfected HEp-2 cells – cell-based, HTS, cytotoxicity control for RSV inhibitor project, dose response (AID 2410); assay type: functional; settings: human respiratory syncytial virus
[2] = Luminescence Cell-Based Dose Response HTS to Identify Activators of Luciferase Translation or Activity in H4 […] Cells. [Related pubchem assays: 1829 (Project Summary), 1814 (Primary HTS)]; assay type: functional
H4 = assay: Luminescence Cell-Based Dose Response HTS to Identify Activators of 5'UTR Stem-Loop Driven Prion Protein mRNA Translation in H4 Neuroglioblastoma Cells. [Related pubchem assays: 1829 (Project Summary), 1814 (Primary HTS)]; assay type: functional; settings: Homo sapiens
Cytochrome P450 1A2 = biological target: T1, Cytochrome P450 1A2 (Homo sapiens, UniProt P05177);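 note: PubChem cytochrome P450 panel assay, CYP1A2 panel member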
T1 sequence (P05177 whole entry): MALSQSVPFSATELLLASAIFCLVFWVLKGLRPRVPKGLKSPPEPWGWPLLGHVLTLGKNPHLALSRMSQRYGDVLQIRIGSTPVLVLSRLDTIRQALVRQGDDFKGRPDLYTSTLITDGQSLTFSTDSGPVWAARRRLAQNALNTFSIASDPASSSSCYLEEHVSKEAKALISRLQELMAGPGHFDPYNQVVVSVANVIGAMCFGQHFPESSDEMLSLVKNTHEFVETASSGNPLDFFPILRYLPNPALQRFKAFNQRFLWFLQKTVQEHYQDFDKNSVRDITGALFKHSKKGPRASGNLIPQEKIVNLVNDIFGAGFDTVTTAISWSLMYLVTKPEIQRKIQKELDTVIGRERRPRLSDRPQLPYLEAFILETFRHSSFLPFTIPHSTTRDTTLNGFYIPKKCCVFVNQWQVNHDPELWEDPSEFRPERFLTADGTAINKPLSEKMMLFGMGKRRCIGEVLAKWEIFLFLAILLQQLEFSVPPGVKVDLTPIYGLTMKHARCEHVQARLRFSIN

Cytochrome P450 3A4 = Cytochrome P450 3A4 (Homo sapiens, UniProt P08684);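 note: CYP3A4 tested as one member of a cytochrome P450 panel screen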
Cytochrome P450 3A4, sequence (P08684 whole entry): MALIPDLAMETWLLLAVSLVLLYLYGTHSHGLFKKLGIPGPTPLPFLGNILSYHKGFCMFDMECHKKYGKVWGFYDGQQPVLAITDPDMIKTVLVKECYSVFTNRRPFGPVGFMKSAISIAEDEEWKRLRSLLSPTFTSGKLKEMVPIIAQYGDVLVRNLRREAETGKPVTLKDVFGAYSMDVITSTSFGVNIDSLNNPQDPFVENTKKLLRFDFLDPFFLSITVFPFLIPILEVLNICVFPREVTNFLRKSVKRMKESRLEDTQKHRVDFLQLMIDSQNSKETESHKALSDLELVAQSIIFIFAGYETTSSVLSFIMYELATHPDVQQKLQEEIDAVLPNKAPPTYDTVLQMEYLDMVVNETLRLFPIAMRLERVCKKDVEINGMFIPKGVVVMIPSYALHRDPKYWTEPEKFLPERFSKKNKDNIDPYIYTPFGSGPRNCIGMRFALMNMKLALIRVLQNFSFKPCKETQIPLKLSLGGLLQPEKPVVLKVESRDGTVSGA

Cytochrome P450 2C19 = Cytochrome P450 2C19 (Homo sapiens, UniProt P33261); assay: Cytochrome panel assay with activity outcomes. Panel member name: p450-cyp2c19 Compounds with AC50 equal or less than 10 uM are considered active; assay type: functional; settings: read-out: AC50
Cytochrome P450 2C19, sequence (P33261 whole entry): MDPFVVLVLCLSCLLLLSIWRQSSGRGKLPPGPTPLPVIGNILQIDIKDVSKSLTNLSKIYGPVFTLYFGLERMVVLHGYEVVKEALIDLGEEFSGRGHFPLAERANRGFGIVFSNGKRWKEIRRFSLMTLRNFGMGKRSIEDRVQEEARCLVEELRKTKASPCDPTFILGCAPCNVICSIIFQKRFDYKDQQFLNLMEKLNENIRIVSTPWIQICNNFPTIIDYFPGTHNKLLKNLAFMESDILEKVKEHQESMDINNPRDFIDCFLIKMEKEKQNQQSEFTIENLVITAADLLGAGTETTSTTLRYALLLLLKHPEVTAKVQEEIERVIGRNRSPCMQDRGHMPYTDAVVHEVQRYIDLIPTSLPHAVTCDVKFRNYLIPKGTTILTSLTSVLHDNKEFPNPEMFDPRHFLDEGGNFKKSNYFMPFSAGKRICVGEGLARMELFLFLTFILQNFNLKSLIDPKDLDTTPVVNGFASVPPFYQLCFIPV

Cytochrome P450 2D6 = Cytochrome P450 2D6 (Homo sapiens, UniProt P10635);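 note: CYP2D6 member of a cytochrome P450 panel assay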
Cytochrome P450 2D6, sequence (P10635 whole entry): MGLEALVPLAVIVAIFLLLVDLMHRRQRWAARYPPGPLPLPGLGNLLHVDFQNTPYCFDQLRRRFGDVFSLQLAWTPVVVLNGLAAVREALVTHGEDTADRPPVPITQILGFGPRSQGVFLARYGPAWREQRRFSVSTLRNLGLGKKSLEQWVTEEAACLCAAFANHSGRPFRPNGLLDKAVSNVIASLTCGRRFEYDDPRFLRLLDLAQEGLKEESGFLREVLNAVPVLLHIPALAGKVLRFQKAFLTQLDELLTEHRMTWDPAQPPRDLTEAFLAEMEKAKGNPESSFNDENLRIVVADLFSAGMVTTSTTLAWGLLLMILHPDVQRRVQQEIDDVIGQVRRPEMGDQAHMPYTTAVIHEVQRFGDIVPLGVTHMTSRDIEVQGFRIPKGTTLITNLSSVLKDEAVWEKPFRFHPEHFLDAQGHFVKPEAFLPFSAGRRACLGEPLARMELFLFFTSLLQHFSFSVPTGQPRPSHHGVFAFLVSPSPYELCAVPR

Cytochrome P450 2C9 = Cytochrome P450 2C9 (Homo sapiens, UniProt P11712)
Cytochrome P450 2C9, sequence (P11712 whole entry): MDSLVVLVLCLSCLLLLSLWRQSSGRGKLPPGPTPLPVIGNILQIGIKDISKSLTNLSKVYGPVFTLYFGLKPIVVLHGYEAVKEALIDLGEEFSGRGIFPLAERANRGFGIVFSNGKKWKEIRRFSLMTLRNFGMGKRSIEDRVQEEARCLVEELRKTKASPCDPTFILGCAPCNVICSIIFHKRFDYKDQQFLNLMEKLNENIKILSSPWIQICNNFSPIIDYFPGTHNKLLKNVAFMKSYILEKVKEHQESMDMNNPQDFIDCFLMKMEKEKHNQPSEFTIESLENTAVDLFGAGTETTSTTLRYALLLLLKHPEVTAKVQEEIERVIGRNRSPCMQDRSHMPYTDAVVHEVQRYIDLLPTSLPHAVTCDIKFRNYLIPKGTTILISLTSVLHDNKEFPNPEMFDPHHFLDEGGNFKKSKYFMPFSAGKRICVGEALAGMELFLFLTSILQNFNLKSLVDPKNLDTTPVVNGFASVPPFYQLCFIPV

Structure (SMILES) | AC50 (Cytochrome P450 1A2) | AC50 (Cytochrome P450 3A4) | also measured
CC(C)(C)Nc1nc(-c2ccc3c(c2)CCN3C(=O)C2CC2)cs1 | – | – | CC50 [1]: 25.2 µM (active)
N#CC1=C2SC=C(c3ccc(Br)cc3)N2CCCC1=O | – | – | EC50 [2]: 864 nM (active); EC50 (H4): 16.9 µM (active)
C[C@]1(c2ccccc2)OC(C(=O)O)=CC1=O | 39.8 µM (inconclusive) | – | –
CO[C@H]1[C@H](O[C@H]2O[C@@H](C)[C@@H](O[C@@H]3C[C@](C)(O)[C@H](OC(=O)CC(C)C)[C@H](C)O3)[C@@H](N(C)C)[C@@H]2O)[C@@H](CC=O)C[C@@H](C)[C@@H](O)/C=C\C=C/C[C@@H](C)OC(=O)C[C@H]1OC(C)=O | – | 12.6 µM (inconclusive) | –
COC(=O)[C@@]1(Cc2ccc(F)cc2)[C@H]2c3cc(C(=O)N4CCCC4)n(Cc4c(CO)ncc(C)c4O)c3C[C@H]2CN1C(=O)c1ccccc1 | 20 µM (inconclusive) | – | AC50 (Cytochrome P450 2C19): 39.8 µM (inconclusive)
O=c1c(-c2cccc(Cl)c2)nc2cncnc2n1Cc1ccccc1Cl | – | 12.6 µM (inconclusive) | AC50 (Cytochrome P450 2D6): 15.8 µM (inconclusive)
COC(=O)c1cccc(NC(=O)CCCOc2ccccc2)c1 | – | 12.6 µM (inconclusive) | –
COCC(=O)N1CCC2(CCCN(c3ccccc3)C2)CC1 | – | 7.94 µM (inconclusive) | –
CN(C)c1ncc2nc(-c3cccs3)c(=O)n(CCc3ccccc3)c2n1 | 5.01 µM (inconclusive) | – | –
Cc1cccc(N(C)C(=O)c2cc3cc4ccc(C)cc4nc3o2)c1 | – | – | EC50 [2]: 1690 nM (active); EC50 (H4): 14.3 µM (active)
COc1ccc(C2SCC(=O)Nc3c2c(C)nn3C2CCOC(C)(C)C2)cc1 (stereo not drawn) | – | 28.2 µM (inconclusive) | AC50 (Cytochrome P450 2C19): 39.8 µM (inconclusive); AC50 (Cytochrome P450 2C9): 25.1 µM (inconclusive)
Cc1ccccc1Cn1c(Cc2ccccc2)nc2ccccc21 | 17.8 µM (inconclusive) | 31.6 µM (inconclusive) | AC50 (Cytochrome P450 2D6): 31.6 µM (inconclusive)
Cc1ccccc1N(C(=O)Cn1nnc(-c2cccs2)n1)C(C(=O)NCCC(C)C)c1ccco1 (stereo not drawn) | – | – | CC50 [1]: 40.4 µM (active)
Cc1noc(C)c1C(=O)N1CCC2(CC1)CCN(c1ccncc1)CC2 | – | 3.98 µM (inconclusive) | AC50 (Cytochrome P450 2D6): 12.6 µM (inconclusive)
CN(CCC#N)C(=O)c1ccc(CNS(=O)(=O)c2ccc(F)cc2)cc1 | 2 µM (inconclusive) | 0.112 µM (inconclusive) | AC50 (Cytochrome P450 2C9): 10 µM (inconclusive)
CN(C)c1ncc2nc(-c3cccc(C#N)c3)c(=O)n(C[C@H]3CCCO3)c2n1 | 3.16 µM (inconclusive) | – | AC50 (Cytochrome P450 2D6): 2.51 µM (inconclusive)
CC(C)CC(C(=O)OCC(=O)Nc1ncc(Cl)cc1Cl)N1C(=O)c2ccccc2C1=O (stereo not drawn) | 11.2 µM (inconclusive) | 31.6 µM (inconclusive) | –
C[C@H](CN(C)C)C(C#N)(c1ccccc1)c1ccccc1 | – | 3.98 µM (inconclusive) | AC50 (Cytochrome P450 2D6): 3.16 µM (inconclusive)
COc1ccc(-c2cc(C(=O)Nc3cc(OC)c(OC)c(OC)c3)no2)cc1OC | – | 10 µM (inconclusive) | AC50 (Cytochrome P450 2C19): 39.8 µM (inconclusive)
COc1ccc(NC(=O)NCc2cccn2C)c(OC)c1 | – | 22.4 µM (inconclusive) | AC50 (Cytochrome P450 2D6): 0.501 µM (inconclusive)
O=C(COc1ccc2ccccc2c1)N1c2ccccc2Sc2ccccc21 | – | – | CC50 [1]: 26.8 µM (active)
Fc1ccc(C2CC(c3ccco3)=NN2c2ccccc2)cc1 (stereo not drawn) | – | 0.0251 µM (inconclusive) | –
O=c1c(-c2ccccc2)nc2cnc(N3CCOCC3)nc2n1C[C@H]1CCCO1 | – | 39.8 µM (inconclusive) | –
COc1ccc(-c2nc(C#N)c(N3CCC(C(N)=O)CC3)o2)cc1OC | 12.6 µM (inconclusive) | 39.8 µM (inconclusive) | AC50 (Cytochrome P450 2C19): 22.4 µM (inconclusive)
CSc1nc(C)cc(SC(C(C)=O)C(=O)Nc2ccccc2)n1 (stereo not drawn) | 15.8 µM (inconclusive) | 14.1 µM (inconclusive) | AC50 (Cytochrome P450 2C9): 1.58 µM (inconclusive)
C/C(=N\NC(=O)COc1ccc(C)cc1C(C)C)c1ccc(-n2ccnc2)cc1 | – | – | CC50 [1]: 24.3 µM (active)
COC(=O)c1ccc(/C=N\NC(=O)c2ccc(C)cc2Cl)cc1 | 10 µM (inconclusive) | – | –
CC1(C)N(O)C(c2ccc(C(=O)O)cc2)=[N+]([O-])C1(C)C | 31.6 µM (inconclusive) | – | –
